Series [1] concerns the target T1, hM4DREADD in Tac2+ neurons (Homo sapiens, UniProt P08173, A203G/Y113C).
T1 construct: host or cells: Tac2+ neurons of Tac2-Cre mice (dBNSTa, DMH or CeA), transduced in vivo with AAV2-EF1a-DIO-hM4D-mCherry
T1 sequence (P08173 1-479 Y113C/A203G): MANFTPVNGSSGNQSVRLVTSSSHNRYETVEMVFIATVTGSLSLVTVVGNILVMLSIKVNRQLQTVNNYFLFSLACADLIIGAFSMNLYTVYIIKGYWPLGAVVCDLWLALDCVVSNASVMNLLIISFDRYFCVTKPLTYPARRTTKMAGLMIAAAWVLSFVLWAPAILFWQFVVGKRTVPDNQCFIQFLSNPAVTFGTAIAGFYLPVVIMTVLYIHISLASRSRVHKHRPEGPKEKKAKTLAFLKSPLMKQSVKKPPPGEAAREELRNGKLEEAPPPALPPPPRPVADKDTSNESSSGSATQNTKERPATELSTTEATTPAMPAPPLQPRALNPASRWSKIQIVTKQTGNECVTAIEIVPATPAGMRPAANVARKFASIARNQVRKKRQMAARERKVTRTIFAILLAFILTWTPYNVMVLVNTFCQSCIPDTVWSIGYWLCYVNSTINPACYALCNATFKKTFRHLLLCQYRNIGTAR
As to the kind of experiment: Tone fear test, CNO silencing of Tac2+ neurons (hM4DREADD). Format: in vivo, mouse. On the procedure: The protocol for tone trace fear conditioning was performed as previously described (Cushman et al., 2014; incorporated by reference in its entirety) using fear conditioning boxes previously described in detail (Haubensak et al., 2010; Kunwar et al., 2015; incorporated by reference in their entirety). Briefly, mice were transported in squads of four on a white cart to a novel behavioral testing room containing 4 sound-attenuating fear-conditioning chambers (Med Associates). This “training context” was comprised of flat grid flooring (wired to a shock generator and scrambler for footshock delivery, Med Associates), houselights, and the presence of an internal fan for background noise. Chambers were sprayed with 70% Simple Green solution on the underlying chamber pan to generate a unique contextual scent and chambers were cleaned with 70% EtOH between squads. Trace fear conditioning consisted of a 3 minute baseline period followed by 3 tone-shock trials consisting of a 20 second tone conditional stimulus (CS; 75 dB, 2800 Hz), a 20 second trace interval and a 2 second footshock unconditional stimulus (US; 0.7 mA). The inter-trial interval (ITI) between trials was 60 seconds. Mice remained in the chambers an additional 60 seconds before being transported back to the vivarium. The following day, mice were transported in fresh cardboard boxes to a novel behavioral testing room consisting of 4 distinct fear-conditioning boxes to test for tone fear. […] Freezing behavior during the baseline period as well as during each tone presentation (“during”) and trace interval (“post”) were assessed as previously described (Zelikowsky et al., 2014; incorporated by reference in its entirety) using automated near-infrared video tracking equipment and computer software (VideoFreeze, Med Associates). Shock reactivity (motion, arbitrary units) was measured during the 2 second shock US as well as the 3 seconds immediately following. […]

The conditions of series [2]: Spooren et al., 2005; cited from earlier work.

Results on 2 compounds are retold here after US12083109B2, “Neurokinin antagonists and uses thereof” (California Institute of Technology, priority 2017, dated 2024).

“Also recorded” adds a separate entry of the source.

For `C[N+]1([O-])CCN(C2=Nc3cc(Cl)ccc3Nc3ccccc32)CC1` [CNO, clozapine-N-oxide], the “acute (during) freezing to conditioned tone” value in series [1] (SIS Tac2-Cre mice, hM4DREADD in CeA, CNO 5 mg/kg i.p.) is “blocked; also recorded: suppressed”. Also, the “persistent (post) freezing to conditioned tone” value in series [1] (SIS Tac2-Cre mice, hM4DREADD in dBNSTa, CNO 5 mg/kg i.p.) is on record as “blocked; also recorded: selectively attenuated”. In addition, the “tone fear test freezing in mCherry control virus mice” value in series [1] (SIS mice, AAV2-EF1a-DIO-mCherry control virus in dBNSTa (no hM4DREADD), CNO vs vehicle) was “had no effect; also recorded: did not observe any effects; also recorded: no significant effects”.
Take `CC(=O)N(C)C1(c2ccccc2)CCN(CCC[C@]2(c3ccc(Cl)c(Cl)c3)CCCN(C(=O)c3ccccc3)C2)CC1` [osanetant, N-(1-{3-[(3R)-1-benzoyl-3-(3,4-dichlorophenyl)piperidin-3-yl]propyl}-4-phenylpiperidin-4-yl)-N-methylacetamide]: the blood-brain barrier passage entry in series [2] is listed as “crosses the blood-brain barrier”.
